Source: US5466700A (priority 1993, dated 1995)

How the values were obtained:
[1] = system: seizure activity on the EEG; details: dog, in vivo
[2] = system: EEG amplitude in anesthetized dogs; details: dog, in vivo

SMILES: C1CCc2nnnn2CC1 [pentylenetetrazole]
- cumulative dose at which seizure activity was observed [1]: 11 to 41 mg/kg
- dogs with seizure activity after pentylenetetrazole [1]: Seizure activity was observed in all the dogs
- EEG amplitude, left hemisphere (occipital frontal leads) [2]: 35.6 ± 8.0 μV
- EEG amplitude, right hemisphere (occipital frontal leads) [2]: 31.5 ± 8.0 μV
- increase in EEG amplitude [2]: 344%
